From patent US6887878B2, “KMST isoeugenol derivatives and pharmaceutical activity” (Ing-Jun Chen, priority 2003, dated 2005)
Where two headings read alike, the source gives them in different places.

Assays:
5-HT1B = molecular target: T1, 5-HT1B (Rattus norvegicus, UniProt P28564); assay: [3H]GR125743 receptor binding in rat cortex; set-up: species or system Wistar rat
T1 construct: from tissue; host or cells: Wistar rat cortex membranes
Protocol: (§1) The homogenate was pressure filtered through muslin. Filtrate was centrifuged at 1000 g for 10 min. […] Protein content was determined by Bradford's method.

[1] = tested on: lipid peroxidation in rat brain homogenate; assay: lipid peroxidation initiated by Fe2+-ascorbic acid in rat brain homogenates (TBARS); format: biochemical; conditions: rat brain homogenates; read-out: IC50 inhibiting lipid peroxidation initiated by Fe2+-ascorbic acid
Protocol: Rat brain homogenate was made in 0.9% saline containing 10 mg tissue/ml. The rates of membrane lipid peroxidation were measured by the formation of thiobarbituric acid (TBA)-reactive substance (TBARS). Rat brain homogenates (1 ml) were incubated at 37° C. for 5 min with 10 μl of test compound or vehicle. […] After 30 min of incubation, the reaction was stopped by adding 0.1 ml of 0.2% BHT. TBA reagent was then added and the mixture was heated for 30 min in a boiling water bath. […] The amount of TBARS was quantified using the linear regression obtained from malondialdehyde (MDA) standards.

[2] = LPS-induced blood glucose changes; format: in vivo, rat; conditions: for LPS-induced early hyperglycemia: at 1 and 3 hours; for LPS-induced hypoglycemia: at 5 hours
Protocol: (§2) In brief, Wistar rats weighing 250-300 g were anesthetized with pentobarbital sodium (50 mg kg^−1, i.p.). Following tracheal cannulation, systemic arterial BP and HR were recorded from the femoral artery by a pressure transducer (model P10EZ; Spectramed, Oxnard, Calif., U.S.A.) connected to a recorder (GOULD, Valley View, Ohio, Model P50). Body temperature was maintained at 37° C. by an electric heating pad. A femoral vein was cannulated for intravenous injection of drugs and LPS (10 mg kg^−1).
(§3) Blood was collected from venous cannula, injected into ice-cold heparinized Eppendorf tubes and centrifuged at 1500 rpm for 10 min at 4° C. Plasma supernatant was stored at −70° C. until analyzed. Solid phase enzyme immunoassay that specifically detects murine IL-1β, IL-6, IFN-γ and TNF-α was used with a detection limit of >10 pg/ml (Endogen, U.S.A). Pre-treatment with KMST and other agents was performed 15 minutes before intravenous injection of LPS. Blood was collected from venous cannula. Blood glucose was measured with a glucose test strip (Glucotide, Bayer, U.S.A) at 1, 3 and 5 hours.

[3] = tested on: phenylephrine-induced contractions in rat thoracic aorta; assay: LPS-induced vascular hyporeactivity: phenylephrine-induced contractions in rat thoracic aorta; format: in vivo, Wistar rat
[4] = tested on: IL-1β, IL-6, IFN-γ and TNF-α; assay: LPS-induced plasma cytokine immunoreactivity; format: in vivo, rat
Protocol: as §2, §3

α2 receptors = assay: [3H]yohimbine receptor binding in rat cortex; set-up: species or system Wistar rat
Protocol: as §1

α1 receptors = assay: [3H]prazosin receptor binding in rat cortex; set-up: species or system Wistar rat
Protocol: as §1

5-HT2A receptor = 5-HT2A receptor (Rattus norvegicus, UniProt P14842); assay: [3H]ketanserin receptor binding in rat cortex; set-up: from tissue; host or cells: Wistar rat cortex membranes; species or system Wistar rat
Protocol: as §1

β2 receptors = molecular target: T2, β2 receptors (Rattus norvegicus, UniProt P10608); assay: [3H]CGP-12177 receptor binding in rat lung; set-up: species or system Wistar rat; conditions: [3H]CGP-12177, rat lung
T2 construct: from tissue; host or cells: Wistar rat lung membranes
Protocol: as §1

M2 = M2 receptor binding; set-up: species or system guinea pig
[5] = tested on: serotonin-induced human platelet aggregation; assay: serotonin-induced human platelet aggregation; format: cell-based
Protocol: (§4) Venous blood from human volunteer donors was collected in 10 ml Monovette containing 1 ml citrate solution (0.106M trisodium citrate; Sarstedt, Nümbrecht, Germany) and centrifuged (400 g, 10 min, 20° C.). […] After centrifugation (10 min, 2000 g, 20° C.), the platelet pellet was resuspended in wishing buffer (113 mM NaCl, 4 mM Na2HPO4, 24 mM NaH2PO4, 4 mM KCl, 0.2 mM EGTA(Ethylene glycol-bis-(2-aminoethyl ether) N,N,N′-tetraacetic acid), 0.1% (wt/vol) glucose, pH 6.0) and recentrifuged (10 min, 2000 g, 20° C.). The washed platelets were resuspended in incubation buffer (134 mM NaCl, 12 mM NaHCO3, 2.9 mM KCl, 0.34 mM NaH2PO4, 5 mM HEPES (N-(2-hydroxyethyl) piperazine-N′-(2-ethanesulfonic acid)), 5 mM glucose, pH7.4), cells were counted in a Sysmex hematology analyzer (Sysmex, CDA-500, Japan) and adjusted to a final concentration of 2×10^8 platelets/ml.
(§5) The aggregation of the platelets in platelet-rich plasma (PRP) was measured as a change in light absorbance by a Payton dual-channel aggregometer (NBS, Hema tracer, Japan). PRP (240 μL) was stirred (700 rpm) at 37° C. for 1 min, and 5 μL epinephrine (final concentration 5 μM), serotonin (final concentration 5 μM) was added. After which the rate of primary aggregation (1/min) and maximum aggregation (%) at 5 min were recorded. To study the effects of compounds on epinephrine or serotonin-induced aggregation, PRP was incubated with 5 μL of compounds at various concentrations for 1 min before epinephrine or serotonin was added. IC50 values given were calculated from the secondary aggregation data.

β1 receptors = molecular target: T3, β1 receptors (Rattus norvegicus, UniProt P18090); assay: [3H]CGP-12177 receptor binding in rat ventricle; set-up: species or system Wistar rat; conditions: [3H]CGP-12177, rat ventricle
T3 construct: from tissue; host or cells: Wistar rat heart (ventricle) membranes
Protocol: as §1

[6] = tested on: epinephrine-induced human platelet aggregation; assay: epinephrine-induced human platelet aggregation; format: cell-based; conditions: epinephrine 5 μM, PRP
Protocol: as §4, §5

5-HT1A = molecular target: T4, 5-HT1A (Rattus norvegicus, UniProt P19327); assay: [3H]WAY100635 receptor binding
T4 sequence (P19327 1-422): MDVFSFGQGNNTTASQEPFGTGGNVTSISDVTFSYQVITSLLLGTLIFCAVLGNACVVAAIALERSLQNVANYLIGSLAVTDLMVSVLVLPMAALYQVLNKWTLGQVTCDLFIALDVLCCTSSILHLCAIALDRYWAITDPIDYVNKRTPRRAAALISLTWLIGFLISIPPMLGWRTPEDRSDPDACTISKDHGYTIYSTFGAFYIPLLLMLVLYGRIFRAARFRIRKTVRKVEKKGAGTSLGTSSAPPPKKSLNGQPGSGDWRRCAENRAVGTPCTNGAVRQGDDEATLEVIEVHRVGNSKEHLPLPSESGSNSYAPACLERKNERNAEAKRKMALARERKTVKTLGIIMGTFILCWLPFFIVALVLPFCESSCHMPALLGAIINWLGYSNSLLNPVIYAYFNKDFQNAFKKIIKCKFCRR

α1-adrenergic receptor = assay: noradrenaline-induced contraction in isolated rat thoracic aorta (pA2); set-up: species or system Wistar rat; conditions: Schild plot, mean ± SEM of eight
Protocol: Clonidine, noradrenaline and serotonin (10^−8˜10^−4 M) were added to the bath to induce contractions after pretreatment with KMST for 15 min.

anesthetized rats [7] = assay: intra-cisternal injection and NTS microinjection, BP and HR; format: in vivo, rat; conditions: central administration
Protocol: Intra-cisternal injections of KMST (0.3, 0.03 μmol), yohimbine [0.03 μmol), and clonidine (38 pmol), were performed in rats as described by Duan et al (1987). Briefly, rats weighing 250-300 g were anaesthetized with pentobarbital sodium (50 mg kg^−1, i.p.) and mounted in a David-Kopf stereotaxic instrument (Yeh J L. et al., Brain. Res. Bull., 30:641-648, 1993). The calvarium was exposed and a 1 mm diameter trephine hole was drilled 1.8 mm lateral to the coronary and 1.5 mm posterior to the sagittal sutures. A cannula (0.7 mm O.D.) connected to a Hamilton syringe (RN-705, 5051) by PE-50 was advanced 4.7 mm into the brain using the electrode carrier.
Rats were anesthetized and placed in a David-Kopf stereotaxic instrument. The cerebellum was exposed after removing the skin and occipital bone. The NTS coordinates were (reference to lambda) P 5-6 mm, L/R 0.5-1 mm, depth 6-7.5 mm (Wu et al., 1994). NTS injection sites were confirmed by decreasing BP and HR following micro-injection of 1% L-glutamate. […] Pre-treatment with clonidine was performed 15 min before administration of test agents. At the end of experiments, the animals were sacrificed. The brain was removed and sectioned for histological confirmation of the drug application site.

anesthetized rats [8] = assay: LPS-induced hypotension; format: in vivo, Wistar rat; conditions: pretreatment, intravenous LPS
Protocol: as §2

[9] = agent given after LPS injection (1 hr), pD2 to phenylephrine
[10] = agent given before LPS injection (30 min), pD2 to phenylephrine
[11] = after LPS injection (1 hr), 15 mg kg-1
[12] = before LPS injection (30 min), 1 mg kg-1
[13] = before LPS injection (30 min), 15 mg kg-1
[14] = serotonin 5 μM, PRP, read-out: IC50 serotonin-induced human platelet aggregation
[15] = [3H]GR125743 (5-HT1B/1D), rat cortex, read-out: Ki 5-HT1B
[16] = read-out: Ki 5-HT1A, [3H]WAY100635

T3 sequence (P18090 whole entry): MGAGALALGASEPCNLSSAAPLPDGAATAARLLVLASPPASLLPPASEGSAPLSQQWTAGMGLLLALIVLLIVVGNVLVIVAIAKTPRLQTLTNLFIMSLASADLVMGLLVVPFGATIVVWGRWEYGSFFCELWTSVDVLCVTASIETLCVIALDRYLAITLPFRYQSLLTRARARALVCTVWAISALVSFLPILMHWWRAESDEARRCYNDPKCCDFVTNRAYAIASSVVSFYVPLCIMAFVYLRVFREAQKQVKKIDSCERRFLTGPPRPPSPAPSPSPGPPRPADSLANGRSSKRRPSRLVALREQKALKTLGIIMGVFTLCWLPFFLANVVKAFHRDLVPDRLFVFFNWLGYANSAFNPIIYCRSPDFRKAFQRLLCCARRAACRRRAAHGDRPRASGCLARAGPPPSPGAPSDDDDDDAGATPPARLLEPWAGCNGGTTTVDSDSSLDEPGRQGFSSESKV
Sequence of 5-HT2A receptor (P14842 whole entry): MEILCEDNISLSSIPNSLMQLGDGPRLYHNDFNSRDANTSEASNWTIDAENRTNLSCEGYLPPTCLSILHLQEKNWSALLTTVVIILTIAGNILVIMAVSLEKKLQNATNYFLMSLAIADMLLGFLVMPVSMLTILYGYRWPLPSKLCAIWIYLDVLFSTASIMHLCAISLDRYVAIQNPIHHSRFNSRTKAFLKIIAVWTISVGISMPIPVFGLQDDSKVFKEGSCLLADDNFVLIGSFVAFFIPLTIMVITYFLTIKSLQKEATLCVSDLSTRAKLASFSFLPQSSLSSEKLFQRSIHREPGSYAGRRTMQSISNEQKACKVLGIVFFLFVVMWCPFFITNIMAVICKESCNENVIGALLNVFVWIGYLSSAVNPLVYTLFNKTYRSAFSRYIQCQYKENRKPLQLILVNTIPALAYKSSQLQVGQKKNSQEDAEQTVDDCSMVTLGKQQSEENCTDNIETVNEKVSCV
T2 sequence (P10608 whole entry): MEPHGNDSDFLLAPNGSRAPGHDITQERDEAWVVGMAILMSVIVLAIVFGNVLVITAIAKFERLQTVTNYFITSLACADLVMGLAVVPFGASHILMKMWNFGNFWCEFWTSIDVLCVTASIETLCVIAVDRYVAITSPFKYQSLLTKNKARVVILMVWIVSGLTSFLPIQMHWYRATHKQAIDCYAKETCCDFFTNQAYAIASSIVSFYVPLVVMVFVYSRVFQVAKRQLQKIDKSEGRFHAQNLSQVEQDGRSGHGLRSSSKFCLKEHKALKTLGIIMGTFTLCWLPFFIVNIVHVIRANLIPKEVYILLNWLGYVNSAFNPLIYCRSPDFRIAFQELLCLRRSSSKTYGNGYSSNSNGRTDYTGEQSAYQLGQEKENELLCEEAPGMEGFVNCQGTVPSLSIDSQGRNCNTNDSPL
T1 sequence (P28564 whole entry): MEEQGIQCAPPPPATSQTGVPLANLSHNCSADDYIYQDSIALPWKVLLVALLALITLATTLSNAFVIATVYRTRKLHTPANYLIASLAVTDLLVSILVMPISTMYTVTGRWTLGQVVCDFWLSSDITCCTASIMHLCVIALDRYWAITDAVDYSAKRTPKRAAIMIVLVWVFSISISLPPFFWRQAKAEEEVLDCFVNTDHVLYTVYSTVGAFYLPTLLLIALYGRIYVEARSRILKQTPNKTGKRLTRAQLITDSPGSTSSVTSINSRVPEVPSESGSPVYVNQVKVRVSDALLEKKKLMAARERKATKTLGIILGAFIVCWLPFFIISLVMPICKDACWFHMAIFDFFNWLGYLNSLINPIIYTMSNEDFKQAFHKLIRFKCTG

CCCCCCCCCOc1ccc2[nH]cc(CCN)c2c1 [5-nonyloxytryptamine, reference compound]
Ki (5-HT1B): 5.81 nM

Cl.N=C(N)NN [Aminoguanidine, aminoguanidine HCl]
IC50 [1]: > 100000 nM
LPS-induced early hyperglycemia [2]: inhibited
LPS-induced hypoglycemia [2]: did not affect
pD2 at 3rd hr [3, 9]: 6.48 ± 0.13
pD2 at 5th hr [3, 9]: 5.81 ± 0.14
pD2 at 3rd hr [3, 10]: 6.81 ± 0.17
pD2 at 5th hr [3, 10]: 5.44 ± 0.31

O=C1O[C@H]([C@@H](O)CO)C(O)=C1O [Ascorbic acid]
IC50 [1]: 7150 ± 140 nM
LPS-induced early hyperglycemia [2]: inhibited
LPS-induced hypoglycemia [2]: did not affect
pD2 at 3rd hr [3, 11]: 6.64 ± 0.16
pD2 at 5th hr [3, 11]: 5.21 ± 0.12
pD2 at 3rd hr [3, 12]: 7.07 ± 0.25
pD2 at 5th hr [3, 12]: 5.04 ± 0.28
pD2 at 3rd hr [3, 13]: 6.71 ± 0.13
pD2 at 5th hr [3, 13]: 5.11 ± 0.22
LPS-induced production of IFN-γ ([4]; 1 hour after LPS administration): insignificantly enhanced

CC(C)NCC(O)COc1ccc(CC(N)=O)cc1 (centres unmarked) [Atenolol]
Ki (α2 receptors): > 10000 nM
Ki (α1 receptors): > 10000 nM

CC=Cc1ccc(OCC(O)CN2CCN(c3ccc(Cl)cc3)CC2)c(OC)c1 (centres unmarked) [Compound 2]
Ki (5-HT2A receptor): 2.99 nM
Ki (β2 receptors): > 10000 nM
Ki (M2): > 10000 nM
Ki (α2 receptors): 1970 nM
IC50 [5, 14]: 4.73 nM
Ki (β1 receptors): 106 nM
IC50 [6]: 3900 nM
Ki (α1 receptors): 47 nM
Ki (5-HT1B; [15]): 1090 nM
Ki (5-HT1A; [16]): > 10000 nM

CC=Cc1ccc(OCCCN2CCN(c3cccc(Cl)c3)CC2)c(OC)c1 [Compound 3]
Ki (5-HT2A receptor): 3.11 nM
Ki (β2 receptors): > 10000 nM
Ki (M2): > 10000 nM
Ki (α2 receptors): 9290 nM
IC50 [5, 14]: 530 nM
Ki (β1 receptors): 113 nM
IC50 [6]: 4.38 nM
Ki (α1 receptors): 142 nM
Ki (5-HT1B; [15]): 770 nM
Ki (5-HT1A; [16]): > 10000 nM

NCCc1c[nH]c2ccc(O)cc12 [Compound 5-HT, 5-Hydroxytryptamine]
Ki (α2 receptors): > 10000 nM
Ki (α1 receptors): > 10000 nM

O=C(c1ccc(F)cc1)C1CCN(CCn2c(=O)[nH]c3ccccc3c2=O)CC1 [Ketanserin, reference compound]
Ki (α2 receptors): 2270 nM
IC50 ([5]; Homo sapiens, Platelet, read-out: IC50 serotonin-induced platelet aggregation): 10 nM
α1 pA2 value (α1-adrenergic receptor): 7.74 ± 0.32
Ki (α1 receptors): 15.8 nM
Ki (5-HT1B; [15]): > 10000 nM
Ki (5-HT1A): > 10000 nM

CC(CCc1ccccc1)NCC(O)c1ccc(O)c(C(N)=O)c1 (centres unmarked) [Labetalol, reference compound]
Ki (β1 receptors): 4.17 nM
Ki (α1 receptors): 52.5 nM

O=c1n(CCCN2CCN(c3cccc(Cl)c3)CC2)nc2ccccn12 [Trazodone]
BP and HR after intra-cisternal injection and NTS microinjection (anesthetized rats [7]): increased BP and HR
pD2 at 3rd hr [3, 9]: 6.01 ± 0.09
pD2 at 5th hr [3, 9]: 5.04 ± 0.11
pD2 at 3rd hr [3, 10]: 6.29 ± 0.21
pD2 at 5th hr [3, 10]: 3.99 ± 0.16
aortic hyporeactivity and second prolonged hypotensive reaction induced by LPS (anesthetized rats [8]): inhibited
LPS-induced elevations of IL-1β, IL-6, IFN-γ and TNF-α levels ([4]; 1 mg kg−1, i.v., pretreatment): reduced only IL-1β and TNF-α

Isoeugenodilol [reference compound]
Ki (5-HT2A receptor): 1010 nM
Ki (β2 receptors): 53.7 nM
Ki (α2 receptors): 9700 nM
Ki (β1 receptors): 43.6 nM
Ki (α1 receptors): 38.9 nM

Isoeugenolol [reference compound]
Ki (5-HT2A receptor): 585 nM
Ki (β2 receptors): 6860 nM
Ki (α2 receptors): > 10000 nM
Ki (β1 receptors): 209 nM
Ki (α1 receptors): > 10000 nM

Methsergide [reference compound]
Ki (α2 receptors): 2430 nM
Ki (α1 receptors): > 10000 nM
Ki (5-HT1B; [15]): > 10000 nM
Ki (5-HT1A; [16]): > 10000 nM
